From patent US6559173B1, “3-(heteroarylamino)methylene-1,3-dihydro-2H-indol-2-ones as kinase inhibitors” (Allergan, Inc., priority 2001, dated 2003)

Key:
[1] = tested on: VEGF induced increases in intracellular calcium levels in HUVEC (human umbilical vein endothelial cells); experiment: VEGF Stimulated Ca++ signal assay (FLIPR); assay type: cell-based; conditions: VEGF 5 ng/mL; for inhibition at 10 µM: 30 min pre-incubation; for IC50: 0.01 to 10.0 μM
Method: VEGF Stimulated Ca^++ Signal in vitro
Automated FLIPR (Fluorometric Imaging Plate Reader) technology was used to screen for inhibitors of VEGF induced increases in intracellular calcium levels in fluorescent dye loaded endothelial cells. HUVEC (human umbilical vein endothelial cells) (Clonetics) were seeded in 96-well fibronectin coated black-walled plates overnight @ 37° C./5%CO2. Cells were loaded with calcium indicator Fluo-4 for 45 minutes at 37° C. Cells were washed 4 times (Original Cell Wash, Labsystems) to remove extracellular dye. Test compounds were reconstituted in 100% DMSO and added to the cells to give a final DMSO concentration of 0.1%. For screening, cells were pre-incubated with test agents for 30 minutes, at a single concentration (10 μM) or at concentrations ranging from 0.01 to 10.0 μM followed by VEGF stimulation (5 ng/mL). Changes in fluorescence at 516 nm were measured simultaneously in all 96 wells using a cooled CCD camera. Data were generated by determining max-min fluorescence levels for unstimulated, stimulated, and drug treated samples. IC50 values for test compounds were calculated from % inhibition of VEGF stimulated responses in the absence of inhibitor.

[2] = biological target: T1, cytoplasmic domain of the human VEGF receptor (VEGFR-2) (Homo sapiens, UniProt P35968); experiment: KDR Assay; assay type: biochemical; conditions: His-VEGFR-2, 3.6 μM ATP, poly-Glu-Tyr (4:1)
T1 construct: The cytoplasmic domain of the human VEGF receptor (VEGFR-2) was expressed as a Histidine-tagged fusion protein; His tag (Histidine-tagged fusion); made in house; host or cells: insect cells (engineered baculovirus)
T1 sequence (P35968 786-1356 limits assumed): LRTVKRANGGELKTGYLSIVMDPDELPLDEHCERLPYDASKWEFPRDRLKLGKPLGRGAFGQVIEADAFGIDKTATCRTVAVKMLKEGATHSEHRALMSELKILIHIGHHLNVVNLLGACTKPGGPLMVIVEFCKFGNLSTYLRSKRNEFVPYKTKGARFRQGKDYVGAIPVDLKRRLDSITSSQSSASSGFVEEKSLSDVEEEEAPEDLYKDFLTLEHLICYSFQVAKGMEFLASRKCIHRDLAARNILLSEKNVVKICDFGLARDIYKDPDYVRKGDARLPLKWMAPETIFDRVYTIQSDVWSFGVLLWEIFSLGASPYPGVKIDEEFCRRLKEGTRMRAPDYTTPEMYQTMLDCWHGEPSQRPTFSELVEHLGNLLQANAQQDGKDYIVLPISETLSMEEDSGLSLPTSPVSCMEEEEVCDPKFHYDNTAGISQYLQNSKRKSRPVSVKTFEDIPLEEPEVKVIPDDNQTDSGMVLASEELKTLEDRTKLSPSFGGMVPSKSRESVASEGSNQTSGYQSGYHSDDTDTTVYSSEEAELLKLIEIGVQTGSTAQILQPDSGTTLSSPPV
Method: The cytoplasmic domain of the human VEGF receptor (VEGFR-2) was expressed as a Histidine-tagged fusion protein following infection of insect cells using an engineered baculovirus. His-VEGFR-2 was purified to homogeneity, as determined by SDS-PAGE, using nickel resin chromatography. Kinase assays were performed in 96 well microtiter plates that were coated overnight with 30 μg of poly-Glu-Tyr (4:1) in 10 mM Phosphate Buffered Saline (PBS), pH 7.2-7.4. The plates were incubated with 1% BSA and then washed four times with PBS prior to starting the reaction. Reactions were carried out in 120 μL reaction volumes containing 3.6 μM ATP in kinase buffer (50 mM Hepes buffer pH 7.4, 20 mM MgCl2, 0.1 mM MnCl2 and 0.2 mM Na3VO4). Test compounds were reconstituted in 100% DMSO and added to the reaction to give a final DMSO concentration of 5%. Reactions were initiated by the addition 0.5 ng of purified protein. Following a ten minute incubation at 25° C., the reactions were washed four times with PBS containing 0.05% Tween-20. 100 μl of a monoclonal anti-phosphotyrosine antibody-peroxidase conjugate was diluted 1:10000 in PBS-Tween-20 and added to the wells for 30 minutes. Following four washes with PBS-Tween-20, 100 μl of 0-Phenylenediamine Dihydrochloride in Phosphate-citrate buffer, containing urea hydrogen peroxide, was added to the wells for 7 minutes as a colorimetric substrate for the peroxidase. The reaction was terminated by the addition of 100 μl of 2.5N H2SO4 to each well and read using a microplate ELISA reader set at 492 nm. IC50 values for compound inhibition were calculated directly from graphs of optical density (arbitrary units) versus compound concentration following subtraction of blank values.

[3] = tested on: VEGF-induced EBD extravasation; experiment: VEGF-induced Dermal Extravasation in Guinea Pig (Miles Assay); assay type: in vivo; conditions: for in-vivo activity (Miles Assay, Table 3): oral administration; for Miles Assay % inhibition: single oral dose 75 mg/kg, vehicle PEG400
Method: VEGF-induced Dermal Extravasation in Guinea Pig (Miles Assay). Male Hartley guinea pigs (300-600 g) were anesthetized with isofluorane, sheared, and given a single oral dose of drug or the respective vehicle. Ten minutes prior to the end of drug treatment, guinea pigs were anesthetized with isofluorane, and 0.5% Evans blue dye (EBD) in PBS (13-15 mg/kg dose of EBD) was injected intravenously. After 5 minutes, triplicate intradermal injections of 100 ng rhVEGF165 in 100 μl PBS and of 100 μl PBS alone were administered on the flank. After 20 minutes, each animal was euthanized with Pentosol, and the skin containing the intradermal injection sites was removed for image analysis.
Using an analog video camera coupled to a PC, an image of each trans-illuminated skin sample was captured, and the integrated optical density of each injection site was measured using ImagePro 4. For each skin sample, the difference between the mean optical density of the VEGF sites and mean optical density of the PBS sites is the measure of VEGF-induced EBD extravasation in that animal. These measured values were averaged per study group to determine the mean VEGF-induced EBD extravasation for each experimental condition, and the group means were then compared to assess inhibition of VEGF-induced EBD extravasation in the drug-treated groups relative to the vehicle-treated controls.

SMILES	IC50 [2]	inhibition at 10 µM ([1]; Homo sapiens)	IC50 ([1]; Homo sapiens)	IC50 [1]	in-vivo activity (Miles Assay, Table 3) [3]	Miles Assay % inhibition [3]
Cc1oc(C(C)(C)C)cc1-c1cc(NC=C2C(=O)Nc3ccccc32)n(C)n1 [Example 47, 3-{[5-(5tert-Butyl-2-methyl-furan-3-yl)-2-methyl-2H-pyrazol-3-ylamino]-methylene}-1,3-dihydro-indol-2-one]	2.51 µM	79.7%	5.92 µM	–	–	–
Cc1cc(NC=C2C(=O)Nc3cc(F)ccc32)no1 [Example 48, 6-Fluoro-3-[(5-methyl-isoxazol-3-ylamino)-methylene]-1,3-dihydro-indol-2-one]	1.39 µM	–	0.96 µM	–	–	–
Cc1onc(NC=C2C(=O)Nc3ccccc32)c1Br [Example 42, 3-[(4-Bromo-5-methyl-isoxazol-3-ylamino)-methylene]-1,3-dihydro-indol-2-one]	1.91 µM	0.3%	–	–	–	–
Cc1cccc2c1C(=CNc1cc(-c3ccco3)[nH]n1)C(=O)N2 [Example 7, 3-[(5-Furan-2-yl-1H-pyrazol-3-ylamino)-methylene]-4-methyl-1,3-dihydro-indol-2-one]	0.54 µM	98.3%	≤ 1 µM	0.92 µM	–	–
COc1ccccc1-c1cc(NC=C2C(=O)Nc3ccccc32)[nH]n1 [Example 37, 3-{[5-(2-Methoxy-phenyl)-2H-pyrazol-3-ylamino]-methylene}-1,3-dihydro-indol-2-one]	12.7 µM	13.6%	–	–	–	–
Cc1noc(NC=C2C(=O)Nc3ccccc32)c1C [Example 45, 3-[(3,4-Dimethyl-isoxazol-5-ylamino)-methylene]-1,3-dihydro-indol-2-one]	0.98 µM	84.9%	2.55 µM	–	–	–
O=C1Nc2cc(F)ccc2C1=CNc1cc(-c2ccco2)[nH]n1 [Example 50, 6-Fluoro-3-[(5-furan-2-yl-1H-pyrazol-3-ylamino)-methylene]-1,3-dihydro-indol-2-one]	0.98 µM	–	≤ 1 µM	0.59 µM	–	–
Cc1cc(C)cc(-c2cc(NC=C3C(=O)Nc4ccccc43)[nH]n2)c1 [Example 32, 3-{[5-(3,5-Dimethyl-phenyl)2H-pyrazol-3-ylamino]-methylene}-1,3-dihydro-indol-2-one]	9.54 µM	46.1%	–	–	–	–
CN(C)c1ccc(-c2cc(NC=C3C(=O)Nc4ccccc43)[nH]n2)cc1 [Example 35, 3-{[5-(4-Dimethylamino-phenyl)-2H-pyrazol-3-ylamino]-methylene}-1,3-dihydro-indol-2-one]	3.49 µM	93%	3.06 µM	–	–	–
CCOc1ccc(-c2cc(NC=C3C(=O)Nc4ccccc43)[nH]n2)cc1 [Example 38, 3-{[5-(4-Ethoxy-phenyl)-2H-pyrazol-3-ylamino]-methylene}-1,3-dihydro-indol-2-one]	9.9 µM	70%	6.75 µM	–	–	–
Cc1oc(C(C)(C)C)cc1-c1cc(NC=C2C(=O)Nc3ccc(F)cc32)[nH]n1 [Example 28, 3-{[5-(5-tert-Butyl-2-methyl-furan-3-yl)-2H-pyrazol-3-ylamino]-methylene}-5-fluoro-1,3-dihydro-indol-2-one]	15.7 µM	43.9%	–	–	–	–

Second part, led by results:

IC50 [2]	SMILES	inhibition at 10 µM ([1]; Homo sapiens)	IC50 ([1]; Homo sapiens)	IC50 [1]	in-vivo activity (Miles Assay, Table 3) [3]	Miles Assay % inhibition [3]
1.13 µM	O=C1Nc2ccc(Cl)cc2C1=CNc1cc[nH]n1 [Example 9, 5-Chloro-3-[(1H-pyrazol-3-ylamino)-methylene]-1,3-dihydro-indol-2-one]	90%	6.14 µM	–	–	–
0.18 µM	COc1ccc(Cc2cc(NC=C3C(=O)Nc4ccccc43)n[nH]2)cc1 [Example 5, 3-{[5-(4-Methoxy-benzyl)-1H-pyrazol-3-ylamino]-methylene}-1,3-dihydro-indol-2-one]	98%	≤ 1 µM	0.5 µM	–	–
0.84 µM	Cc1ccc(-c2cc(NC=C3C(=O)Nc4ccccc43)n[nH]2)cc1 [Example 3, 3-[(5-P-Tolyl-1H-pyrazol-3-ylamino)-methylene]-1,3-dihydro-indol-2-one]	74%	2.44 µM	–	–	–
0.65 µM	Cc1cc(NC=C2C(=O)Nc3ccccc32)no1 [Example 44, 3-[(5-Methyl-isoxazol-3-ylamino)-methylene]-1,3-dihydro-indol-2-one]	97%	2.55 µM	–	–	–
0.33 µM	Cc1cc(NC=C2C(=O)Nc3ccc(F)cc32)n[nH]1 [Example 26, 5-Fluoro-3-[(5-methyl-1H-pyrazol-3-ylamino)-methylene]-1,3-dihydro-indol-2-one]	97.1%	≤ 1 µM	0.52 µM	significant in-vivo activity	100%
1.03 µM	O=C1Nc2ccc(Cl)cc2C1=CNc1cc(-c2ccco2)[nH]n1 [Example 10, 3-[(5-Furan-2-yl-1H-pyrazol-3-ylamino)-methylene]-5-chloro-1,3-dihydro-indol-2-one]	76%	3.23 µM	–	–	–
2.22 µM	O=C1Nc2cc(F)ccc2C1=CNc1cc[nH]n1 [Example 53, 6-Fluoro-3-[(1H-pyrazol-3-ylamino)-methylene]-1,3-dihydro-indol-2-one]	–	1.38 µM	–	–	–
5.78 µM	CC(C)(C)c1cc(NC=C2C(=O)Nc3ccccc32)n[nH]1 [Example 22, 3-[(5-tert-Butyl-1H-pyrazol-3-ylamino)-methylene]-1,3-dihydro-indol-2-one]	98.3%	6.09 µM	–	–	–
2.32 µM	O=C1Nc2ccccc2C1=CNc1ccon1 [Example 43, 3-(Isoxazol-3-ylaminomethylene)-1,3-dihydro-indol-2-one]	62.4%	7.56 µM	–	–	–
0.5 µM	Cc1cccc2c1C(=CNc1cc[nH]n1)C(=O)N2 [Example 6, 4-Methyl-3-[(1H-pyrazol-3-ylamino)-methylene]-1,3-dihydro-indol-2-one]	97.6%	≤ 1 µM	1.07 µM	significant in-vivo activity	83%
0.58 µM	O=C1Nc2ccccc2C1=CNc1cc(-c2ccccc2)[nH]n1 [Example 2, 3-[(5-Phenyl-H-pyrazol-3-ylamino)-methylene]-1,3-dihydro-indol-2-one]	90.5%	1.33 µM	–	–	–
